Measured values reported in patent publication US20090016990A1, “Antimicrobial Compositions” (priority 2007, published 2009).

Columns and labels:
[1] = system: Pseudomonas aeruginosa ATCC 27853; assay: MBEC assay, biofilm elimination, MBEC bioFILM PA panel; assay type: cell-based; parameters: MBEC-Biofilm Elimination, Without compound 2 / MBEC-Biofilm Elimination, With 0.01% compound 2 in 5% EtOH/PBS / MBEC-Biofilm Elimination, Without compound 7 / MBEC-Biofilm Elimination, With 0.01% compound 7 in 5% EtOH/PBS / MBEC-Biofilm Elimination, Without compound 1 / MBEC-Biofilm Elimination, With 0.01% compound 1 in 5% EtOH/PBS / MBEC-Biofilm Elimination, without salt of compound 2 / MBEC-Biofilm Elimination, with 0.1% salt of compound 2: unit not given here; conditions: for MBEC-Biofilm Elimination, without salt of compound 2 / MBEC-Biofilm Elimination, with 0.1% salt of compound 2: Table 9; for MBEC-Biofilm Elimination, without salt of compound 2 / MBEC-Biofilm Elimination, without salt of compound 6: antibiotic or antibiotic combination alone; for MBEC-Biofilm Elimination, without salt of compound 2 / MBEC-Biofilm Elimination, with 0.1% salt of compound 2 / MBEC-Biofilm Elimination, without salt of compound 6 / MBEC-Biofilm Elimination, with 0.1% salt of compound 6: value per component; for MBEC-Biofilm Elimination, with 0.1% salt of compound 2: antibiotic or combination plus 0.1% salt of compound 2; for MBEC-Biofilm Elimination, without salt of compound 6 / MBEC-Biofilm Elimination, with 0.1% salt of compound 6: Table 10; for MBEC-Biofilm Elimination, with 0.1% salt of compound 6: antibiotic or combination plus 0.1% salt of compound 6; for MBEC-Biofilm Elimination, Without compound 1 / MBEC-Biofilm Elimination, Without compound 2 / MBEC-Biofilm Elimination, Without compound 3 / MBEC-Biofilm Elimination, Without compound 6 / MBEC-Biofilm Elimination, Without compound 7 / MBEC-Biofilm Elimination, Without compound 9: antibiotic alone
[2] = system: Pseudomonas aeruginosa ATCC 27853; assay: MBEC assay, biofilm inhibition (prevention of biofilm formation), MBEC bioFILM PA panel; assay type: cell-based; parameters: MBEC-Biofilm Inhibition, Without compound 9 / MBEC-Biofilm Inhibition, Without compound 6 / MBEC-Biofilm Inhibition, Without compound 2 / MBEC-Biofilm Inhibition, Without compound 7 / MBEC-Biofilm Inhibition, With 0.01% compound 7 in 5% EtOH/PBS / MBEC-Biofilm Inhibition, without salt of compound 2 / MBEC-Biofilm Inhibition, with 0.1% salt of compound 2 / MBEC-Biofilm Inhibition, without salt of compound 6: unit not given here; conditions: for MBEC-Biofilm Inhibition, without salt of compound 2 / MBEC-Biofilm Inhibition, with 0.1% salt of compound 2: Table 9; for MBEC-Biofilm Inhibition, without salt of compound 2 / MBEC-Biofilm Inhibition, without salt of compound 6: antibiotic or antibiotic combination alone; for MBEC-Biofilm Inhibition, without salt of compound 2 / MBEC-Biofilm Inhibition, with 0.1% salt of compound 2 / MBEC-Biofilm Inhibition, without salt of compound 6 / MBEC-Biofilm Inhibition, with 0.1% salt of compound 6: value per component; for MBEC-Biofilm Inhibition, without salt of compound 2: separated by /; for MBEC-Biofilm Inhibition, with 0.1% salt of compound 2: antibiotic or combination plus 0.1% salt of compound 2; for MBEC-Biofilm Inhibition, without salt of compound 6 / MBEC-Biofilm Inhibition, with 0.1% salt of compound 6: Table 10; for MBEC-Biofilm Inhibition, with 0.1% salt of compound 6: antibiotic or combination plus 0.1% salt of compound 6; for MBEC-Biofilm Inhibition, Without compound 1 / MBEC-Biofilm Inhibition, Without compound 2 / MBEC-Biofilm Inhibition, Without compound 3 / MBEC-Biofilm Inhibition, Without compound 6 / MBEC-Biofilm Inhibition, Without compound 7 / MBEC-Biofilm Inhibition, Without compound 9: antibiotic alone

Row | Compound | MBEC-Biofilm Elimination, without salt of compound 2 [1] | MBEC-Biofilm Elimination, with 0.1% salt of compound 2 [1] | MBEC-Biofilm Elimination, without salt of compound 6 [1] | MBEC-Biofilm Elimination, with 0.1% salt of compound 6 [1] | MBEC-Biofilm Elimination, Without compound 1 [1] | MBEC-Biofilm Elimination, Without compound 2 [1] | MBEC-Biofilm Elimination, Without compound 3 [1] | MBEC-Biofilm Elimination, Without compound 6 [1] | MBEC-Biofilm Elimination, Without compound 7 [1] | MBEC-Biofilm Elimination, Without compound 9 [1] | MBEC-Biofilm Elimination, With 0.01% compound 1 in 5% EtOH/PBS [1] | MBEC-Biofilm Elimination, With 0.01% compound 2 in 5% EtOH/PBS [1] | MBEC-Biofilm Elimination, With 0.01% compound 7 in 5% EtOH/PBS [1] | MBEC-Biofilm Elimination, With 0.05% compound 3 in 5% EtOH/PBS [1] | MBEC-Biofilm Elimination, With 0.05% compound 6 in 5% EtOH/PBS [1] | MBEC-Biofilm Elimination, With 0.1% w/v compound 9 in PBS [1] | MBEC-Biofilm Inhibition, without salt of compound 2 [2] | MBEC-Biofilm Inhibition, with 0.1% salt of compound 2 [2] | MBEC-Biofilm Inhibition, without salt of compound 6 [2] | MBEC-Biofilm Inhibition, with 0.1% salt of compound 6 [2] | other results
1 | gentamicin [GM] | >2 | >2 | >2 | >2 | >2 | >2 | >2 | >2 | >2 | 2 | 2 | >2 | 2 | >2 | >2 | >2 | >2 | >2 | >2 | >2 | MBEC-Biofilm Inhibition, Without compound 1 [2]: >2; MBEC-Biofilm Inhibition, Without compound 2 [2]: >2; MBEC-Biofilm Inhibition, Without compound 3 [2]: >2; MBEC-Biofilm Inhibition, Without compound 6 [2]: >2; MBEC-Biofilm Inhibition, Without compound 7 [2]: >2; MBEC-Biofilm Inhibition, Without compound 9 [2]: >2; MBEC-Biofilm Inhibition, With 0.01% compound 1 in 5% EtOH/PBS [2]: >2; MBEC-Biofilm Inhibition, With 0.01% compound 2 in 5% EtOH/PBS [2]: >2; MBEC-Biofilm Inhibition, With 0.01% compound 7 in 5% EtOH/PBS [2]: >2; MBEC-Biofilm Inhibition, With 0.05% compound 3 in 5% EtOH/PBS [2]: >2; MBEC-Biofilm Inhibition, With 0.05% compound 6 in 5% EtOH/PBS [2]: >2; MBEC-Biofilm Inhibition, With 0.1% w/v compound 9 in PBS [2]: >2
2 | C[C@@H](O)[C@H]1C(=O)N2C(C(=O)O)=C(S[C@@H]3CN[C@H](C(=O)N(C)C)C3)[C@H](C)[C@H]12 [MER, meropenem] | >1 | >1 | >1 | >1 | >1 | >1 | >1 | >1 | >1 | >1 | >1 | >1 | >1 | 1 | >1 | >1 | >2 | >2 | >2 | >2 | MBEC-Biofilm Inhibition, Without compound 1 [2]: >2; MBEC-Biofilm Inhibition, Without compound 2 [2]: >2; MBEC-Biofilm Inhibition, Without compound 3 [2]: >2; MBEC-Biofilm Inhibition, Without compound 6 [2]: >2; MBEC-Biofilm Inhibition, Without compound 7 [2]: >2; MBEC-Biofilm Inhibition, Without compound 9 [2]: >2; MBEC-Biofilm Inhibition, With 0.01% compound 1 in 5% EtOH/PBS [2]: >2; MBEC-Biofilm Inhibition, With 0.01% compound 2 in 5% EtOH/PBS [2]: >2; MBEC-Biofilm Inhibition, With 0.01% compound 7 in 5% EtOH/PBS [2]: >2; MBEC-Biofilm Inhibition, With 0.05% compound 3 in 5% EtOH/PBS [2]: >2; MBEC-Biofilm Inhibition, With 0.05% compound 6 in 5% EtOH/PBS [2]: >2; MBEC-Biofilm Inhibition, With 0.1% w/v compound 9 in PBS [2]: >2
3 | CC(C)(O/N=C(\C(=O)N[C@@H]1C(=O)N2C(C(=O)[O-])=C(C[n+]3ccccc3)CS[C@H]12)c1csc(N)n1)C(=O)O [CAZ, ceftazidime] | >4 | >4 | >4 | >4 | >4 | >4 | >4 | >4 | >4 | >4 | >4 | >4 | >4 | >4 | >4 | >4 | >4 | >4 | >4 | >4 | MBEC-Biofilm Inhibition, Without compound 1 [2]: >4; MBEC-Biofilm Inhibition, Without compound 2 [2]: >4; MBEC-Biofilm Inhibition, Without compound 3 [2]: >4; MBEC-Biofilm Inhibition, Without compound 6 [2]: >4; MBEC-Biofilm Inhibition, Without compound 7 [2]: >4; MBEC-Biofilm Inhibition, Without compound 9 [2]: >4; MBEC-Biofilm Inhibition, With 0.01% compound 1 in 5% EtOH/PBS [2]: >4; MBEC-Biofilm Inhibition, With 0.01% compound 2 in 5% EtOH/PBS [2]: >4; MBEC-Biofilm Inhibition, With 0.01% compound 7 in 5% EtOH/PBS [2]: >4; MBEC-Biofilm Inhibition, With 0.05% compound 3 in 5% EtOH/PBS [2]: >4; MBEC-Biofilm Inhibition, With 0.05% compound 6 in 5% EtOH/PBS [2]: >4; MBEC-Biofilm Inhibition, With 0.1% w/v compound 9 in PBS [2]: >4
4 | colistin [CT] | >1 | >1 | >1 | >1 | >1 | >1 | >1 | >1 | >1 | >1 | 1 | 0.5 | 1 | >1 | >1 | >1 | >1 | >1 | >1 | >1 | MBEC-Biofilm Inhibition, Without compound 1 [2]: >1; MBEC-Biofilm Inhibition, Without compound 2 [2]: >1; MBEC-Biofilm Inhibition, Without compound 3 [2]: >1; MBEC-Biofilm Inhibition, Without compound 6 [2]: >1; MBEC-Biofilm Inhibition, Without compound 7 [2]: >1; MBEC-Biofilm Inhibition, Without compound 9 [2]: >1; MBEC-Biofilm Inhibition, With 0.01% compound 1 in 5% EtOH/PBS [2]: >1; MBEC-Biofilm Inhibition, With 0.01% compound 2 in 5% EtOH/PBS [2]: >1; MBEC-Biofilm Inhibition, With 0.01% compound 7 in 5% EtOH/PBS [2]: >1; MBEC-Biofilm Inhibition, With 0.05% compound 3 in 5% EtOH/PBS [2]: >1; MBEC-Biofilm Inhibition, With 0.05% compound 6 in 5% EtOH/PBS [2]: >1; MBEC-Biofilm Inhibition, With 0.1% w/v compound 9 in PBS [2]: >1
5 | O=C(N[C@H](CO)[C@H](O)c1ccc([N+](=O)[O-])cc1)C(Cl)Cl [C, chloramphenicol] | >4 | >4 | >4 | >4 | >4 | >4 | >4 | >4 | >4 | >4 | >4 | >4 | >4 | >4 | >4 | >4 | >4 | >4 | >4 | >4 | MBEC-Biofilm Inhibition, Without compound 1 [2]: >4; MBEC-Biofilm Inhibition, Without compound 2 [2]: >4; MBEC-Biofilm Inhibition, Without compound 3 [2]: >4; MBEC-Biofilm Inhibition, Without compound 6 [2]: >4; MBEC-Biofilm Inhibition, Without compound 7 [2]: >4; MBEC-Biofilm Inhibition, Without compound 9 [2]: >4; MBEC-Biofilm Inhibition, With 0.01% compound 1 in 5% EtOH/PBS [2]: >4; MBEC-Biofilm Inhibition, With 0.01% compound 2 in 5% EtOH/PBS [2]: >4; MBEC-Biofilm Inhibition, With 0.01% compound 7 in 5% EtOH/PBS [2]: >4; MBEC-Biofilm Inhibition, With 0.05% compound 3 in 5% EtOH/PBS [2]: >4; MBEC-Biofilm Inhibition, With 0.05% compound 6 in 5% EtOH/PBS [2]: >4; MBEC-Biofilm Inhibition, With 0.1% w/v compound 9 in PBS [2]: >4
